Literature values as cited in patent US20220323523A1, “METHOD AND APPARATUS FOR THE INFUSION OF CA[…] A SHELF-STABLE FOOD COMPOSITION” (priority 2019, published 2022).

Settings: rats; for enhancement of exposure by co-administration of lipids compared to lipid-free formulations: co-administration of lipids vs lipid-free formulations

| SMILES | enhancement of exposure by co-administration of lipids compared to lipid-free formulations | enhancement of bioavailability by co-administration of cannabinoids with lipids |
| --- | --- | --- |
| C=C(C)[C@@H]1CCC(C)=C[C@H]1c1c(O)cc(CCCCC)cc1O [CBD, Cannabidiol] | 3 fold | ~3 fold |
| CCCCCc1cc(O)c2c(c1)OC(C)(C)[C@@H]1CCC(C)=C[C@@H]21 [THC, Tetrahydrocannabinol] | 2.5 fold | more than 2.5 fold |
